In patent US12104173B2, “Method for differentiation of human pluripotent stem cell lines in suspension culture” (AGENCY FOR SCIENCE, TECHNOLOGY AND RESEARCH, priority 2018, dated 2024):

What was measured:
Type in all cases: cell-based, human
[1] = test system: D9 O-neg hiPSC line; test: CHIR dose: hematopoietic/erythroid differentiation of agitated hPSC-MC aggregates; conditions: for Erythroblast expansion Fold-expansion: optimal dose of CHIR-99021, 24 days in erythroblast expansion medium (static), cumulative
Description: Human pluripotent stem cell-microcarrier (HPSC-MC) aggregates generated from different hPSC lines were differentiated using 3 different CHIR doses (5, 10 and 15 μM for 24 hours) and were evaluated for T-bra (day 2) and KDR+PDGFRβ− (day 4) expression by flow cytometry, induction of key hematopoietic transcription factors by RT-PCR (day 4), hematopoietic precursor expansion (day 14) and erythroblast expansion (day 42).
Table 2—Hematopoietic differentiation of nine human pluripotent stem cell (hPSC) lines, from expansion in agitated microcarrier culture to erythroblast expansion—This table summarises the different stages of differentiation; hPSC expansion, mesoderm induction, hematopoietic precursor and erythroblast expansion of multiple hPSC-MC aggregate lines differentiated with optimal dose of CHIR-99021. Fold-expansion of hPSC-MC aggregates following 7 days of agitated culture, hematopoietic precursors following 14 days of culture in methylcellulose medium and erythroblast expansion following 24 days in expansion medium are reported. Flow cytometric evaluation of % T-bra+ cells on day 2 and % KDR+ cells on day 4 during mesoderm induction, % CD43+ cells during hematopoietic precursor expansion, % CD235a+ cells and fetal hemoglobin expression during erythroblast expansion stage are summarised. Total erythroid cells per hPSC seeded on day 42 was calculated as number of embryoid bodies derived on day 4 per hPSC seeded*erythroblast fold expansion*percent CD235a+ erythroblast.
Analysis of Design of experiments (DoE) outcomes and evaluation of selected conditions generated by the MODDE® software allowed the development of an optimized protocol for hematopoietic mesoderm induction of human pluripotent stem cell-microcarrier (hPSC-MC) aggregates initially expanded under continuous agitation. Approximately 2 to 4 million hPSC-MC aggregates in 3 ml of Stemline® II medium were differentiated as follows: day 1; 30 ng/ml of BMP4, 50 ng/ml VEGF165, 12 μM CHIR-99021 (Selleck Chemicals, USA), 50 ng/ml Activin A, day 2; 30 ng/ml of BMP4, 50 ng/ml VEGF165, 50 ng/ml Activin A, day 3: 30 ng/ml of BMP4, 50 ng/ml VEGF165 and 20 ng/ml bFGF. Four days post-differentiation, single cells derived by TrypLE™ Express (ThermoFisher Scientific) treatment and strained through 40 μm cell strainers (Greiner Bio-one, Germany) were used for hematopoietic precursor and erythroblast expansion and erythroblast terminal maturation as detailed herein. Hematopoietic and erythroblast differentiation were monitored by flow cytometry, quantitative real-time PCR, immunoblotting and microscopic imaging. Oxygen binding affinity of differentiated erythroblast was determined using a Hemox Analyzer (TCS Scientific Corp, USA).
HPSC-MC aggregates were dissociated into single cells by treatment with TrypLE. Express (ThermoFisher Scientific) for 5 minutes at 37° C., passed through 40 μm cell strainer (Greiner Bio-one), centrifuged at 1300 rpm for 3 minutes to pellet cells, and rinsed once with phosphate buffered saline (PBS) before re-suspension in Stemline II medium. Two hundred thousand cells in 100 μl of Stemline II medium were transferred to a 6-well ultra-low attachment plate and cultured with Blast growth medium (BGM) for 2 weeks in static conditions as detailed herein.
Hematopoietic precursors were mixed with equal volume of Stemline II medium containing 50 ng/ml of SCF (STEMCELL. Technologies) and 3 U/ml EPO (Peprotech, USA), for an additional 7 days. Subsequently, cells were diluted 10-fold with PBS and pelleted by centrifugation at 3000 rpm for 10 minutes. […]

[2] = test system: X13 induced pluripotent stem cells (iPSCs) on microcarriers; test: screening of Wnt pathway activators: mesoderm induction (T-bra, KDR+PDGFRα−) by flow cytometry; conditions: at 72 hours, compared to other Wnt pathway modulators
Description: (A) is a column graph showing two different concentrations of seven Wnt pathway activators (BIO, SB-216763, CHIR98014, Inhibitor VIII, Kenpaullone, DRF053 dihydrochloride and Wnt3a). which were selected from literature reviews and screened with CHIR99021 as a control for the disclosed hematopoietic differentiation protocol. The viability of the X13 induced pluripotent stem cells (iPSCs) on microcarriers were tabulated accordingly 24 hours post treatment of the various Wnt pathway modulators. […] (B) is a column graph showing the percentage of mesogerm induction.
Human induced pluripotent stem cell-microcarrier (hiPSC-MC) aggregates (1×10^6 cells/ml, or 1e6 cells/nil) were transferred to mesoderm induction medium (cytokines all from Stemcell Technologies) plus Stemline II Hematopoietic Stem Cell Expansion medium (SL2) in either 6-well ultra-low attachment plates (5 ml) under continuous agitation at 75 rpm or 125 ml spinner flasks (50 ml) under continuous agitation at 36 rpm. Daily medium changes as indicated: Day 0: SL2+30 ng/ml BMP4+50 ng/ml VEGF-165+40 ng/ml Activin A+12-15 μM CHIR-99021; Day 1: SL2+30 ng/ml BMP4+50 ng/ml VEGF-165+40 ng/ml Activin A; Day 2: SL2+20 ng/ml BMP4+30 ng/ml VEGF165+5 ng/ml Activin A+10 ng/ml bFGF+20 ng/ml SCF+0.4 ng/ml β-estradiol. Samples were collected on day 1 and day 3 for flow cytometry analysis of T-brachyury (T-Bra) and KDR/PDGFRα cells, respectively.

[3] = test system: D5 O-neg hiPSC line; test: CHIR dose: hematopoietic/erythroid differentiation of agitated hPSC-MC aggregates; conditions: optimal dose of CHIR-99021, day 4
[4] = test system: IMR90 hiPSC line; test: as above; conditions: optimal dose of CHIR-99021, day 4

Cc1c[nH]c(-c2cnc(NCCNc3ccc(C#N)cn3)nc2-c2ccc(Cl)cc2Cl)n1 [CHIR-99021, 6-[[2-[[4-(2,4-Dichlorophenyl)-5-(5-methyl-1H-imidazol-2-yl)-2-pyrimidinyl]amino]ethyl]amino]-3-pyridinecarbonitrile]
T-Bra+ cells ([1]; 15 μM CHIR for 24 hours, day 2, flow cytometry): 39±5.37%
KDR+PDGFRβ- cells ([1]; 15 μM CHIR for 24 hours, day 4, flow cytometry): 18.07±0.6%
Total erythroid cells per hPSC seeded (day 42) ([1]; optimal dose of CHIR-99021): 63
Hematopoietic precursor expansion % CD43 ([1]; optimal dose of CHIR-99021, 14 days in methyl cellulose medium): 21.3%
Hematopoietic precursor expansion Fold-expansion ([1]; optimal dose of CHIR-99021, 14 days in methyl cellulose medium (static)): 6.0 fold
Erythroblast expansion Fold-expansion ([1]; day 42): 121 fold
Erythroblast expansion Fold-expansion ([1]; day 42, listed as CHIR): 121.2±36.89 fold
Mesoderm induction % T-Bra ([1]; optimal dose of CHIR-99021, day 2): 41.8%
Erythroblast expansion % CD235a+ ([1]; optimal dose of CHIR-99021, erythroblast expansion stage): 57.5%
Erythroblast expansion Hemoglobin expression ([1]; optimal dose of CHIR-99021, fetal hemoglobin, flow cytometry): 97.8
KDR+PDGFRα− population [2]: significantly highest
Mesoderm induction % KDR+ PDGFRα− [3]: 35.8%
Mesoderm induction % KDR+ PDGFRα− [4]: 14.2%
